The target in experiment [1] is T1, native aSyn aggregates in A30P transgenic mouse brain sections (Homo sapiens, UniProt P37840, A30P).
T1 construct: from tissue; host or cells: brain sections (midbrain and pons as ROI) of A30P transgenic mice, line B6.D2-Tg(Thy1-SNCA*30P)31Pjk
As to the kind of experiment: aSyn in vitro displacement assay ([3H]Example-3 autoradiography). Conditions: 3 nM [3H]Example-3, A30P transgenic mouse brain sections; for inhibition at 1 µM: 1 μM compound, read-out: PCT_INHIB A30P @ 1 μM (% displacement of [3H]Example-3). It counts as binding, mutant human aSyn gene).

Experiment [2] has as its target T2, native Aβ aggregates in human AD brain tissue sections (Homo sapiens, UniProt P05067).
T2 construct: native Aβ aggregates in human AD brain tissue samples; from tissue; host or cells: human AD brain tissue sections
As to the kind of experiment: Aβ in vitro displacement assay (selectivity counterscreen, [3H]Example 3 autoradiography). Conditions: 3 nM [3H]Example 3, human AD brain sections; for inhibition at 1 µM: 1 μM compound, read-out: sel. counterscreen PCT_INHIB AD @ 1 μM (% displacement of [3H]Example 3). It is filed as binding. Background: A counterscreen serves to expose hits that act by an unwanted route or on another target.

T2 sequence (P05067 672-713 limits assumed): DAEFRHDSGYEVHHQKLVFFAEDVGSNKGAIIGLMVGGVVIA

Consider `O=C(Nc1ccc(N2CCN(c3ccccn3)CC2)cc1)c1ccccc1F` [Example 9, 2-Fluoro-N-(4-(4-(pyridin-2-yl)piperazin-1-yl)phenyl)benzamide], for which the inhibition at 1 µM in experiment [1] is 82%; in experiment [2] it was 96%.
Regarding `C#CCOCCOc1ccc(C(=O)Nc2ccc(N3CCN(c4ccccn4)CC3)cc2)cc1` [Example 178, 4-(2-Prop-2-ynoxyethoxy)-N-[4-[4-(2-pyridyl)piperazin-1-yl]phenyl]benzamide], the inhibition at 3 µM was found to be 97% in experiment [1] (3 μM compound, read-out: PCT_INHIB A30P @ 3 μM) and 93% in experiment [2] (3 μM compound, read-out: sel. counterscreen PCT_INHIB AD @ 3 μM).
In the case of `O=C(Nc1ccc(N2CCN(c3ccccn3)CC2)cc1)c1ccc(OCC(O)CF)cc1` (racemic) [Example 125, rac-4-(3-Fluoro-2-hydroxypropoxy)-N-(4-(4-(pyridin-2-yl)piperazin-1-yl)phenyl)benzamide], the inhibition at 1 µM in experiment [1] amounted to 82%; in experiment [2], 92%.
On the same counts, the results for `COc1ccc(C(=O)Nc2ccc(N3CCN(c4ncccn4)CC3)cc2)cc1` [Example 49, 4-Methoxy-N-{4-[4-(pyrimidin-2-yl)piperazin-1-yl]phenyl}benzamide] are 92% and 95%.
For `CN(C)c1ccc(C(=O)Nc2ccc(N3CCN(c4nccs4)CC3)cc2)cc1` [Example 20, 4-(Dimethylamino)-N-[4-[4-(1,3-thiazol-2-yl)piperazin-1-yl]phenyl]benzamide] the same measures were 90% and 103%.
Regarding `COc1ccc(C(=O)Nc2ccc(N3CCN(c4ccccc4OC)CC3)cc2)cc1` [Example 69, 4-Methoxy-N-{4-[4-(2-methoxyphenyl)piperazin-1-yl]phenyl}benzamide], the inhibition at 1 µM in experiment [1] turned out to be 89%; in experiment [2] it was 86%.
On the same counts, the results for `Cc1ccc(C(=O)Nc2cnc(N3CCN(c4ccccn4)CC3)nc2)cc1` [Example 74, 4-Methyl-N-(2-(4-(pyridin-2-yl)piperazin-1-yl)pyrimidin-5-yl)benzamide] are 93% and 95%.
For the compound `CN1CCN(c2ccc(C(=O)Nc3ccc(N4CCN(c5nccs5)CC4)cc3)cc2)CC1` [Example 28, 4-(4-Methylpiperazin-1-yl)-N-[4-[4-(1,3-thiazol-2-yl)piperazin-1-yl]phenyl]benzamide], in experiment [1], the inhibition at 1 µM was determined as 82%.
With `Cc1ccc(C(=O)Nc2ccc(N3CCN(c4nccs4)CC3)cc2)nc1` [Example 25, 5-Methyl-N-[4-[4-(1,3-thiazol-2-yl)piperazin-1-yl]phenyl]pyridine-2-carboxamide], the inhibition at 1 µM in experiment [1] worked out at 83%.
Take `COc1ccc(C(=O)Nc2ccc(N3CCN(c4ccccn4)CC3)nc2)c(C)c1` [Example 19, 4-Methoxy-2-methyl-N-[6-[4-(2-pyridyl)piperazin-1-yl]-3-pyridyl]benzamide]: in experiment [1], the inhibition at 1 µM came to 81%.
The same measure, in the same setting: the value for `O=C(Nc1ccc(N2CCN(c3nccs3)CC2)cc1)c1ccc(N2CCOCC2)cc1` [Example 26, 4-Morpholin-4-yl-N-[4-[4-(1,3-thiazol-2-yl)piperazin-1-yl]phenyl]benzamide] was 93%; that for `Cc1ccc(C(=O)Nc2ccc(N3CCN(c4nccs4)CC3)cc2)cc1` [Example 27, 4-Methyl-N-[4-[4-(1,3-thiazol-2-yl)piperazin-1-yl]phenyl]benzamide] was 89%; that for `COc1ccc(C(=O)Nc2ccc(N3CCN(c4ccccn4)CC3)nc2)cc1` [Example 24, 4-Methoxy-N-[6-[4-(2-pyridyl)piperazin-1-yl]-3-pyridyl]benzamide] was 94%.
The same measure, in the same setting: then `CN1CCN(c2ccc(C(=O)Nc3ccc(N4CCN(c5ccccn5)CC4)nc3)cc2)CC1` [Example 22, 4-(4-Methylpiperazin-1-yl)-N-[6-[4-(2-pyridyl)piperazin-1-yl]-3-pyridyl]benzamide], with 84%; and `Cc1ccc(C(=O)Nc2ccc(N3CCN(c4ccccn4)CC3)nc2)c(F)c1` [Example 23, 2-Fluoro-4-methyl-N-[6-[4-(2-pyridyl)piperazin-1-yl]-3-pyridyl]benzamide], with 82%.

For the origin of these results see patent US11541132B2, “Radiolabeled compounds” (Hoffmann-La Roche Inc., priority 2017, dated 2023).
